Here are results for twelve molecules from patent US5891892A, “Small molecule biaryl compounds as inhibitors of endothelin converting enzyme” (Warner-Lambert Company, priority 1997, dated 1999).

Data set [1] concerns the target T1, human ECE-1 (Homo sapiens, UniProt P42892).
T1 construct: expressed in transfected cells
T1 sequence (P42892 1-770): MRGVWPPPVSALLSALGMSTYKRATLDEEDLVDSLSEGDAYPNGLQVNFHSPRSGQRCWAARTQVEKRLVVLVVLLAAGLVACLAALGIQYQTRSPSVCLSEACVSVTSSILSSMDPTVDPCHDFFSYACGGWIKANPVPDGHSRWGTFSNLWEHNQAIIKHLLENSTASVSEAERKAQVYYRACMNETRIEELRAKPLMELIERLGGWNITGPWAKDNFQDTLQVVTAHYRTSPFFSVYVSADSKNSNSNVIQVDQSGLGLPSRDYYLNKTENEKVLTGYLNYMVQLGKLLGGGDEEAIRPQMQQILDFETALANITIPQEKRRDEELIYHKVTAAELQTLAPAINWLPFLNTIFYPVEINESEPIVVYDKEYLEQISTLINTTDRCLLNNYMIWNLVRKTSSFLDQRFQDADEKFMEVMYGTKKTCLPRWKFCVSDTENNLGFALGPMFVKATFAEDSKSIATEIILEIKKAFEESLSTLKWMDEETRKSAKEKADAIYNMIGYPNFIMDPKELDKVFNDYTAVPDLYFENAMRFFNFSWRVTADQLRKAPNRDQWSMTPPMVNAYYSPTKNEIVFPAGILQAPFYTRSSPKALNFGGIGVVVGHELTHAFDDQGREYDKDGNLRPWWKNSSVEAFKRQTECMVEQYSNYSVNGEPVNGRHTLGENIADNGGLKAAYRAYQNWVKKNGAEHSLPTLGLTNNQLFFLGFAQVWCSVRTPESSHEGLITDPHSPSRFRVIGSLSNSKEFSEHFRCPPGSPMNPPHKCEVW
Put plainly: ECE-1 Assay (ET-1 formed from big ET-1, by Elisa). It is filed as biochemical. As to conditions: solubilized membrane fraction of CHO/human ECE-1 cells, 0.1 μM big ET-1, pH 7.0, 1 hour at 37° C. On the procedure: All cells were grown in a humidified incubator at 37° C. in an atmosphere of 5% CO2/95% air. The membrane fractions from CHO cells were prepared as described in (Cell 1994; (78):473-485). ECE-1 Assay […] The final concentration of DMSO was 1.5%. […] This final mixture was then directly analyzed for the amount of ET-1 by enzyme-linked immunosorbant assay (Elisa).

The test system of data set [2] is ETA. As to conditions: endotoxic shock, mouse; cited from earlier work.
Data set [3] deals with ET receptor. As to conditions: allergic sheep; cited from earlier work.
The subject of data set [4] is isolated rat hearts. As to conditions: cited from earlier work; for preischemic increase in coronary perfusion pressure induced by big ET-1 and its preischemic effect: phosphoramidon (IC50 =100 μM), BQ-123 0.3 μM; for time to contracture in globally ischemic rat hearts: 30 pMol ET-1 or 10 nMol big ET-1 pretreatment; for pIC50: isolated rat hearts, read-out: IC50, reduction of coronary flow.

The subject of data set [5] is SHR. As to conditions: IV infusion; cited from earlier work.
Data set [6] relates to lethality induced by big ET-1. The note with it: in vivo; cited from earlier work.
For data set [7], the system named is effects of big ET-1 in the microvasculature. The note with it: anesthetized hamsters; cited from earlier work.
For data set [8], the system named is pressor response of big ET-1. The note with it: ganglion-blocked anesthetized rats; cited from earlier work.
Data set [9] concerns pulmonary vascular resistance. The note with it: young piglets; cited from earlier work.
Data set [10] deals with infarct size. The note with it: IV, 24 hour postischemia; cited from earlier work.
Data set [11] concerns effects of intracisternal big ET-1. As to conditions: anesthetized dogs; cited from earlier work.
Data set [12] relates to ECE. The note with it: ECE in vitro, cited from earlier work.
The test system of data set [13] is hemodynamic actions of big ET-1. As to conditions: rat brain; cited from earlier work.
The subject of data set [14] is vasoconstrictor effects evoked by big ET-1. As to conditions: anaesthetized pigs; cited from earlier work.
For data set [15], the system named is pressor response of big ET. As to conditions: cited from earlier work.
In data set [16] the test system is gastric mucosa. The note with it: 50 to 500 pmol/kg into the left gastric artery; cited from earlier work.
The conditions of data set [17]: in vivo; cited from earlier work.
For data set [18], the system named is vascular strips. The note with it: cited from earlier work.
The subject of data set [19] is endothelin. As to conditions: rats; cited from earlier work.

pIC50: −log10 of the molar value. Like-named read-outs stand apart in the source and are kept apart here. Non-standard residues stand in square brackets, D forms with d. Residues, ends and D or L forms follow the SMILES beside them. No end group written: not given here.

Regarding `CNc1nc(-c2nc(C(=O)O)cc(OC)c2OC)cs1` [Example 5, 6-(2-N-Methylamino-thiazol-4-yl)-4,5-dimethoxy-pyridine-2-carboxylic acid], in [1], the pIC50 is 5.30 to 6.00.
In turn, `COc1cc(C(=O)O)nc(-c2csc(N)n2)c1OC` [Example 4, 6-(2-Amino-thiazol-4-yl)-4,5-dimethoxy-pyridine-2-carboxylic acid] had a pIC50 in data set [1] of 5.30 to 6.00.
Regarding `CC(C)C[C@@H]1NC(=O)[C@@H](C(C)C)NC(=O)[C@@H]2CCCN2C(=O)[C@@H](CC(=O)O)NC(=O)[C@@H](Cc2c[nH]c3ccccc23)NC1=O` [BQ-123] (cyclo(L[dW][dD]P[dV])), the survival rate result in data set [2] is “significantly increased the survival rate in this model”. Moreover, in data set [3], the “ET-1-induced bronchoconstriction and tracheal smooth muscle contraction” value was “block ET-1-induced bronchoconstriction and tracheal smooth muscle contraction in allergic sheep”. The “preischemic increase in coronary perfusion pressure induced by big ET-1 and its preischemic effect” value in data set [4] is reported as “abolished the preischemic increase in coronary perfusion pressure induced by big ET-1 as well as its preischemic effect”.
Turning to `O=P(O)(O)CNC(Cc1ccc(-c2ccccc2)cc1)c1nn[nH]n1` (stereo not drawn) [CGS 26303], the “antihypertensive responses in the SHR” value in [5] is recorded as “effective at lowering the antihypertensive responses in the SHR”.
With `COc1cc(C(=O)O)nc(-c2csc(C)n2)c1OC` [Example 2, 6-(2-Methyl-thiazol-4-yl)-4,5-dimethoxy-pyridine-2-carboxylic acid], the negative logarithm of the IC50 (pIC50) in data set [1] was 5.72.
As to `CC(C)C[C@H](NP(=O)(O)O[C@@H]1O[C@@H](C)[C@H](O)[C@@H](O)[C@H]1O)C(=O)N[C@@H](Cc1c[nH]c2ccccc12)C(=O)O` [phosphoramidon], in data set [6], the “lethality induced by intravenous infusion of big ET-1” value is given as “suppress the lethality induced by the intravenous infusion of big ET-1”. For the same molecule, the “effects of big ET-1 in the microvasculature” value in data set [7] was “inhibit the effects of big ET-1 in the microvasculature of anesthetized hamsters”. Besides, the “pressor response of big ET-1” value in data set [8] is given as “blocked by phosphoramidon in a dose-dependent manner”. For the same molecule, the “elevated pulmonary vascular resistance after cardiopulmonary bypass” value in data set [9] is recorded as “reduce elevated pulmonary vascular resistance after cardiopulmonary bypass”. The infarct size entry in data set [10] was “significantly reduce infarct size 24 hour postischemia”. The “decreased basilar artery caliber and elevated systemic arterial pressure by intracisternal big ET-1” value in [11] is “These effects were blocked by phosphoramidon”. The values for the pIC50 in data set [12] and in [12] (listed as Phosphoramidon) were around 6.00 and 6.00, respectively. The “preischemic increase in coronary perfusion pressure induced by big ET-1 and its preischemic effect” value in data set [4] is reported as “abolished the preischemic increase in coronary perfusion pressure induced by big ET-1 as well as its preischemic effect”. Further, in data set [13], the “inhibition of hemodynamic actions of big ET-1” value is “phosphoramidon sensitive inhibition of hemodynamic actions of big ET-1 in rat brain”. Moreover, the “plasma ET-1 level” value in [14] is listed as “did not have any effect on the plasma ET-1 level”. In addition, the “vasoconstrictor effects evoked by intravenous injections of big ET-1” value in data set [14] is reported as “inhibit vasoconstrictor effects evoked by intravenous injections of big ET-1”. Besides, in [15] (in all cases (studies cited in b8)), the “inhibition of effects of ET-1 (versus big ET-1)” value is “inhibited the effects of big ET-1 and not ET-1”. Further, the “block of the pressor response of big ET” value in data set [15] (micromolar concentrations, in vitro and in vivo) was “block the pressor response of big ET both in vitro and in vivo”.
“ET-1: a potent vasoconstrictor, is a 21 amino acid bicyclic peptide”: in data set [16], the “gastric mucosal hemorrhagic change” value is given as “induced gastric mucosal hemorrhagic change in a dose-dependent manner”; the “tissue type plasminogen activator release and platelet activating formation” value is “increased the tissue type plasminogen activator release and platelet activating formation”. Also, in data set [4], the “time to contracture in globally ischemic rat hearts” value was “significantly reduced the time to contracture” and the pIC50 is 10.92.
Regarding “Big ET: 38 (human) or 39 (porcine) amino acid peptide known as big endothelin or proendothelin (CSCSSLMDKECVYFCHLDIIWVNTPEHVVPYGLGSPRS; ends and bridges not checked; cysteine pairing not given here; UniProt P05305 53-90, looked up)”, the “potency relative to ET-1 at raising blood pressure” value in data set [17] is listed as “equally potent in vivo at raising blood pressure”. Also, in data set [18], the “potency relative to ET-1 in inducing contractile activity” value is listed as 1%. Moreover, in data set [4], the “time to contracture in globally ischemic rat hearts” value was “significantly reduced the time to contracture” and the pIC50 was 8.70.
`COc1cccc(Oc2c(NS(=O)(=O)c3ccc(C(C)(C)C)cc3)ncnc2OCCO)c1` [RO 46-2005]: the “efficacy in acute renal ischemia and subarachnoid hemorrhage” value in data set [19] was “effective in models of acute renal ischemia and subarachnoid hemorrhage in rats”.
Molecule `COc1cc(C(=O)O)nc(-c2csc(CCCCCC(C)O)n2)c1OC` (stereo not drawn) [Example 1, 6-[2-(6-Hydroxy-heptyl)-thiazol-4-yl]-4,5-dimethoxy-pyridine-2-carboxylic acid] gave a pIC50 in data set [1] of 5.89.
Consider `CCCCCCCc1nc(-c2nc(C(=O)O)cc(OC)c2OC)cs1` [Example 3, 6-(2-Heptyl-thiazol-4-yl)-4,5-dimethoxy-pyridine-2-carboxylic acid], for which, in data set [1], the pIC50 was 5.89.
In [1], `COc1cc(C(=O)O)nc(-c2cscn2)c1OC` [Example 6, 6-(Thiazol-4-yl)-4,5-dimethoxy-pyridine-2-carboxylic acid] showed a negative logarithm of the IC50 (pIC50) of 5.00 to 5.30.

As usually defined, the pIC50 is the IC50 on a negative log10 scale, so that one unit is a factor of ten.
